Measurements taken from patent publication US11160788B2, “Caspase-1 inhibition and uses thereof for prevention and treatment of neurological conditions” (priority 2016, dated 2021).

Columns and labels:
J20 mice [1] = test: Barnes maze spatial memory, treatment of symptomatic J20 mice; type: in vivo, mouse
Description: FIG. 8: VX-765 treatment restores cognitive function in J20 mice. (a) Experimental paradigm. Intraperitoneal vehicle-injected wild type (WT+Vehicle; n=13) and J20 mice (J20+Vehicle: n=9), and VX-765-injected J20 mice (J20+VX-765: n=9) mice were behaviourally assessed at 5 different time-points: baseline before treatment (baseline untreated J20 were grouped together; n=18), after 3 IP injections/wk of VX-765 or vehicle (Treatment 1), after 6 additional injections over 2 weeks (Treatment 2), after 4-week Washout period, and after an additional 3 injections in one week (Treatment 3). Mice were sacrificed at 8 months of age after Treatment 3 (b) NOR Discrimination index (Treatment main effect, F(2,20)=85.8, p<0.0001; Time main effect, F(4,80)=4.188, p=0.0039; Treatment×Time interaction, F(8,80)=[…], two-way repeated-measures ANOVA, Dunnett's post-hoc compared to J20+Vehicle). (c) Distance traveled during Open Field task. Data analyzed by repeated measures two-way ANOVA (Treatment main effect, F(2,19)=11.47, p=0.0005; Treatment×Time interaction, F(8,76)=5.69, p<0.0001, two-way repeated-measures ANOVA, Dunnett's post-hoc compared to J20+Vehicle). (d-i) Barnes maze analysis. Learning acquisition (d,g), probe test primary latency and errors (e,h), and target hole preference (f,i); # of pokes of each hole labelled +1 to +9 to the right or −1 to −9 to the left of the target hole during the probe) after Treatment 2 (d-f) and Washout (g-i). Probe tests were analyzed (Treatment 2 primary latency, F(2,52)=5.879, p=0.0050; Treatment 2 primary errors, F(2,52)=9.998, p=0.0002; Washout primary latency, F(2,22)=4.076, p=0.0312; Washout primary errors, F(2,22)=10.84, p=0.0005, ANOVA, Tukey's post-hoc). * p<0.05, ***p<0.001, ****p<0.0001.
FIG. 9: VX-765 dose-dependently restores cognitive function in J20 mice. (a) NOR discrimination index after VX-765 dose response at Treatment 1 (F(3,24)=20.42, p<0.0001, ANOVA, Dunnett's post-hoc compared to J20 0 mg/kg), Treatment 2 (F(3,23)=12.83, p<0.0001, ANOVA, Dunnett's post-hoc compared to J20 0 mg/kg), Washout, and Treatment 3 (F(3,23)=8.828, p=0.0004, ANOVA, Dunnett's post-hoc compared to J20 0 mg/kg). Note that the 50 mg/kg dose was not performed at the same time and is placed here for comparison purposes only. Nevertheless, the discrimination index was stable between experiments (b-g) Barnes maze Treatment 2 (b-d) and Washout (e-g) learning acquisition (b,e), probe test (c,f), and target hole preference (d,g). For T2 primary errors, F(2,14)=5.69, p=0.0155, ANOVA, Dunnett's post-hoc compared to J20+Vehicle. * p<0.05, ***p<0.001, ****p<0.0001.
Anxiety and hyperactivity are monitored in an open-field paradigm, episodic memory with the NOR, spatial memory with the Barnes maze, and short or long term working memory with the Y maze before and after treatments. Repeated measures are acceptable for the NOR, Barnes and Y maze^2-4.
Five month old mice were behaviorally and longitudinally assessed before treatment (baseline), after 3 injections/week of 50 mg/kg VX-765 (Treatment 1; T1), after an additional 2 weeks of injections (Treatment 2; T2), after 4 weeks without treatment (Washout; WO), and after 3 more injections/week (Treatment 3; T3) before sacrificing the mice at 8 months of age as illustrated in FIG. 8a. […] Results were consistent across individual mice (FIG. 15c). […] However, during the probe test, the primary latency, primary errors (FIG. 8e) and the ability to find the target (T) escape hatch (FIG. 8f) were clearly impaired in vehicle-injected J20 compared to WT littermates. […] After WO, all mice performed well during the training phase of the Barnes maze (FIG. 8g). […] J20 mice performance in the Y maze working memory task was consistently low but not always statistically different from WT or treated J20 mice (FIG. 15e).

J20 mice [2] = test: NOR, preventive treatment of pre-symptomatic J20 mice; type: in vivo, mouse
Description: FIG. 22: Novel object recognition behavioral assay to assess episodic memory in J20 mice. Mice were treated with vehicle (WT and J20) or 50 mg/kg VX-765 (J20) at 2 months of age for 1 month (3 injections per week×4 weeks=12 injections). (a) Schematic representation of the manner in which the studies were carried out. (b) Discrimination index indicates the number of touches of the novel object minus the number of touches of the familiar object divided by the number of total touches for both objects. Two-way ANOVA (F(2,240)=75.62, p<0.0001) with Dunnett's compared to the J20+vehicle. * p<0.05, **** p<0.0001 (c) % mice impaired in NOR in each group of mice tested at the different time points.
Studies are done on 8 (pre-symptomatic) week old J20 and littermate WT controls injected with 50 mg/Kg VX-765 or vehicle. The 8 week old mice are injected for 4 weeks (3 injections per week) and monitored for memory deficits at 16 weeks of age and every 4 weeks thereafter until the mice reach 8 months of age. VX-765 delays the onset of cognitive deficits by at least 5 months in the J20 mouse.
To determine if VX-765 can delay the appearance of AD-like cognitive deficits and pathology in the J20 mice, J20 mice were injected 3 times per week for 4 weeks starting at 2 months of age. We started NOR tests at 4 months of age, after 1 month without drug, and retested every month thereafter until 8 months of age (FIG. 3). […] At 8 months of age, only 1 of 3 mice have NOR deficit resulting in an averaged normal behavior. Since we sacrificed 2 mice per group at 4, 5, and 6 months and 3 mice per group at 7 and 8 months, note that the results of the older groups need more experimental data for solid conclusions.
We directly tested whether pre-symptomatic inhibition of inflammation in a mouse genetic model of Alzheimer disease can stem the progression of memory and behavioral deficits, and Alzheimer disease-like pathology. The J20 amyloid precursor protein Swedish/Indiana mutant mouse was treated at 2 months of age for a one month period with 50 mg/Kg Caspase-1 inhibitor VX-765 (FIG. 22a).

CCO[C@@H]1OC(=O)C[C@@H]1NC(=O)[C@@H]1CCCN1C(=O)[C@@H](NC(=O)c1ccc(N)c(Cl)c1)C(C)(C)C [VX-765, (S)-1-((S)-2-{[1-(4-amino-3-chloro-phenyl)-methanoyl]-amino}-3,3-dimethyl-butanoyl)-pyrrolidine-2-carboxylic acid ((2R,3S)-2-ethoxy-5-oxo-tetrahydro-furan-3-yl)-amide]
Barnes maze ability to recognize the escape hatch in probe test (J20 mice [1]; 10 mg/kg, after Treatment 2): improved in their ability to recognize the escape hatch | Barnes maze primary latency (J20 mice [1]; 10 mg/kg, after Treatment 2): remained impaired in primary latency | Barnes maze primary latency and errors (J20 mice [1]; 10 mg/kg, after washout): No significant difference | Barnes maze ability to recognize the escape hatch in probe test (J20 mice [1]; 25 mg/kg, after Treatment 2): improved in their ability to recognize the escape hatch | Barnes maze primary errors (J20 mice [1]; 25 mg/kg, after Treatment 2): decreased | Barnes maze primary latency (J20 mice [1]; 25 mg/kg, after Treatment 2): remained impaired in primary latency | Barnes maze primary latency and errors (J20 mice [1]; 25 mg/kg, after washout): No significant difference | Barnes maze recognition of the position of the escape hatch (J20 mice [1]; 25 mg/kg, after washout): retained the ability to recognize the position of the escape hatch | Barnes maze probe test: primary latency, primary errors, finding target hatch (J20 mice [1]; 50 mg/kg IP, after Treatment 2): eliminated these spatial memory deficits | Barnes maze ability to find the target hatch (J20 mice [1]; 50 mg/kg IP, after washout): performed better than vehicle-injected J20 mice | Barnes maze probe test primary latency and errors (J20 mice [1]; 50 mg/kg IP, after washout): appeared normal in primary latency and errors | delay of the onset of cognitive deficits (J20 mice [2]; 50 mg/Kg, 3 injections per week for 4 weeks from 8 weeks of age): at least 5 months | NOR performance (J20 mice [2]; 4, 5 and 6 months of age (1, 2, 3 month washout)): perform normally on NOR | mice that developed NOR deficits (J20 mice [2]; 7 months of age (4 month washout)): 3 out of 6 | mice with NOR deficit (J20 mice [2]; 8 months of age): 1 of 3 | NOR discrimination index (J20 mice [2]; after 16 and 20 week washout): lower performance although they are still performing better than vehicle-treated J20 mice | NOR discrimination index (J20 mice [2]; average, each washout time point (4 to 20 weeks)): perform like the WT mice | percentage of mice impaired in NOR (J20 mice [2]; each washout time point): does not differ significantly from vehicle-treated WT mice
